# Source: US20200094070A1, “METHOD AND APPARATUS FOR PHOTOACTIVATING NUCLEAR RECEPTORS” (THERALASE BIOTECH INC., priority 2017, published 2020)
# How the values were obtained:
# Rat glioma (RG2) cells [1] = experiment: LLLT combined with 14C PDT, Presto Blue cell kill, RG2 cells; type: cell-based; settings: for 14C-mediated cell kill after LLLT: RG2, 100 nM 14C
# Method: (§3) RG2 cells (15,000 cells) or human bladder cancer (T24) cells (10,000 cells) were seeded in complete DMEM in 96-well culture plates and incubated at 37° C., 5% CO2 overnight. The next day, the cells were washed once with PBS and the medium was replaced with complete DMEM without phenol red or sodium pyruvate. Cells were treated with either 660 nm, 905 nm or a combination of both wavelengths at the indicated fluence doses in J/cm^2. After 6 or 24 hours, the media was replaced with media containing the ruthenium-based PDC 14C (100 nM for RG2 cells and 200 nM for T24 cells) for 1 hour, then the PDC was washed away and the cells were treated with PDT using green laser light (wavelength: 530 nm, fluence 20 J/cm^2) using a 96-laser diode array light source (TLD3000, Theralase Inc. Toronto, ON, Canada), after which the plates were returned to the dark in the incubator overnight. Cell viability was measured by Presto Blue cell viability assay quantifying fluorescence at using a plate reader at excitation emissions of 560/600 nm. PDT-mediated cell kill was calculated by subtracting cell kill due to LLLT first and values were normalized to control cells that were kept in the dark and not treated with LLLT.
# (§4) RG2 cells (7,500 cells) or human bladder cancer (T24) cells (5,000 cells) were seeded in complete DMEM in 96-well culture plates and incubated at 37° C., 5% CO2 overnight. The next day, the cells were washed once with PBS and the medium was replaced with complete DMEM without phenol red or sodium pyruvate, with or without 10 uM GCR antagonist mifepristone for an additional 24 hours. Cells were treated with either 660 nm, 905 nm or a combination of both wavelengths at the indicated energy doses in J/cm^2. After 6 or 24 hours, the media was replaced with media containing the ruthenium-based photodynamic compound 14C (100 nM for RG2 cells and 200 nM for T24 cells) for 3 hours, then the drug was washed away and the cells were treated with PDT using green laser (wavelength: 530 nm, fluence 20 J/cm^2) using a 96-laser diode array light source (TLD-3000, Theralase Inc. Toronto, ON, Canada), and the plates were returned to the dark in the incubator overnight. Cell viability was measured by Presto Blue cell viability assay quantifying fluorescence at using a plate reader at excitation emissions of 560/600 nm.
# CT26WT tumor cells = experiment: LLLT and PDT in vivo hind leg tumor model; set-up: species or system Balb/c mice; settings: LLLT 2.5-20 J/cm^2 daily for 5 days; injection on day 5; suboptimal red light PDT 90 J/cm^2 4 hours after injection
# Method: CT26WT tumor cells were implanted in the hind leg of Balb/c mice to develop a hind leg tumor model. […] TLD-1433 (14C) was injected on day 5 of LLLT treatment and suboptimal red light PDT (90 J/cm^2) was performed 4 hours after injection. Tumor size and survival were determined to examine the effect of LLLT on potentiating the effect of 14C-mediated PDT and improving the survival curve.
# [2] = test system: human bladder cancer (T24) cells; experiment: LLLT combined with 14C PDT, Presto Blue cell kill, T24 cells; type: cell-based; settings: for 14C-mediated cell kill after LLLT: T24, 200 nM 14C
# Method: as §3, §4
# RG2 cells [3] = experiment: Stem-like characteristics of cancer cells (qPCR of stem cell genes, proliferation rate) after LLLT; type: cell-based, rat; settings: 24 hours pre-treatment
# Method: Cells were then treated with 905 nm at fluence doses of 5 or 20 J/cm^2. Cells were incubated for 6 hours, then the cells were washed once with PBS and harvested by TRIzol reagent for RNA extraction (Invitrogen) per the manufacturer's protocol. 2 ug of RNA were used to prepare cDNA using the high-capacity cDNA reverse transcription kit (Thermofisher) and the cDNA was diluted 1:10. 2 μl of cDNA was used per PCR reaction using the SYBR green master mix and qPCR was run on the LightCycler 480 (Roche). Gene expression was normalized to the housekeeping gene HPRT, and values were normalized to control cells that were kept in the dark and not treated with LLLT. Relative analysis of stem cell associated transcription factor genes CD133, OCT4, NANOG, SOX2 and LIN28a, or proliferation promoting genes NESTIN, MSI1, MELK and ALDH1a1. […] Phase contrast images (4×) were taken every 4 hours using the Incucyte ZOOM system to calculate percent confluency overtime. […] Proliferation rate was calculated as the inverse of T (time when cells reach confluency halfway between original seeding density (15%) and final 100% confluency). Data were normalized to the corresponding dark control group (0 J/cm^2) for each drug expressed as 1 (not shown). […]
# RG2 cells [4] = settings: Mifepristone 10 uM, 24 hours
# Method: (§5) RG2 cells (30,000 cells) or human bladder cancer (T24) cells (20,000 cells) are seeded in complete DMEM in 96-well Seahorse culture plates (Agilent technologies) and incubated at 37° C., 5% CO2. The cells are treated for 24 hours with the GCR agonist, dexamethasone, or the GCR antagonist, Mifepristone (10 uM). The cells are then washed once with PBS and the medium replaced with complete DMEM without phenol red or sodium pyruvate. Cells are treated with either 660 nm, 905 nm or a combination of both wavelengths at energy doses from 0.5 to 10 J/cm^2. Cells are incubated for 24 hours. The media is then replaced with XF media without sodium bicarbonate and the plate placed at 37° C. in XF prep station (0% CO2) for 1 hour. Basal ECAR and OCR levels are measured using XFe96 analyzer (Agilent technologies) per the manufacturer's protocol.
# [5] = test system: human bladder cancer (T24) cells; experiment: LLLT combined with Cisplatin, Presto Blue cell kill, T24 cells; type: cell-based; settings: for Cisplatin-mediated cell kill after LLLT: T24, 1.5 ug/ml
# Method: (§1) After 6 or 24 hours, the cells were treated with Cisplatin (1 ug/ml for RG2 cells or 1.5 ug/ml for T24 cells), and the plates were returned to the incubator overnight. Cell viability was measured by Presto Blue cell viability assay quantifying fluorescence at using a plate reader at excitation emissions of 560/600 nm. Values were normalized to control cells that were kept in the dark and not treated with LLLT.
# as §1, with “Values will be” for “Values were”, “that are” for “that were”
# (§2) Cells were then treated with either: 1) the ruthenium-based PDC 14C followed by PDT using a green laser light source (FIGS. 24A-24D); 2) the antineoplastic drug Cisplatin (FIGS. 25A-25D). The plates were then returned to the incubator overnight. Cell viability was measured by Presto Blue cell viability assay quantifying fluorescence at using a plate reader at excitation emissions of 560/600 nm. Values were normalized to control cells that were […].
# [6] = test system: human bladder cancer (T24) cells; settings: Mifepristone 10 uM, 24 hours
# Method: as §5
# Rat glioma (RG2) cells [7] = experiment: LLLT combined with Cisplatin, Presto Blue cell kill, RG2 cells; type: cell-based; settings: for Cisplatin-mediated cell kill after LLLT: RG2, 1 ug/ml
# Method: as §1
# as §1, with “Values will be” for “Values were”, “that are” for “that were”
# as §2
# [8] = LLLT 905 nm PW 5 J/cm^2 or 660 nm CW 2.5 J/cm^2 before PDT 530 nm 20 J/cm^2
# [9] = LLLT higher fluence values of 20 and 10 J/cm^2
# [10] = RG2, 10 uM pre-treatment, no LLLT
# [11] = RG2, 10 uM, LLLT 905 nm 5 J/cm^2, 660 nm 2.5 J/cm^2 or combination 5 J/cm^2
# [12] = T24, 10 uM pre-treatment, no LLLT
# [13] = T24, 10 uM, LLLT 905 nm 5 J/cm^2, 660 nm 2.5 J/cm^2 or combination 5 J/cm^2
# [14] = 5 J/cm^2 for 905 nm PW and most conditions with 660 nm CW alone (Example 9A)
# [15] = 905 nm PW or combined 905 nm PW and 660 nm CW at 20 J/cm^2 (Example 9A)
compound,measurement,setting,value
Cc1ccnc(-c2cc(C)ccn2)c1.Cc1ccnc(-c2cc(C)ccn2)c1.[Cl-].[Cl-].[Ru+2].c1csc(-c2ccc(-c3ccc(-c4nc5c6cccnc6c6ncccc6c5[nH]4)s3)s2)c1 [14C],14C-mediated cell kill after LLLT,Rat glioma (RG2) cells [1]; [8],increased
same,14C-mediated cell kill after LLLT,Rat glioma (RG2) cells [1]; [9],promoted cell survival
same,"survival of mice, LLLT plus PDT compared to PDT only",CT26WT tumor cells,synergistically increased the survival
same,14C-mediated cell kill after LLLT,[2]; [8],increased
same,14C-mediated cell kill after LLLT,[2]; [9],promoted cell survival
CC#C[C@]1(O)CC[C@H]2[C@@H]3CCC4=CC(=O)CCC4=C3[C@@H](c3ccc(N(C)C)cc3)C[C@@]21C [Mifepristone],effect of Mifepristone pre-treatment on positive effects of LLLT on stem-like characteristics,RG2 cells [3],blocked
same,"effect on Warburg effect (glycolysis, mitochondrial respiration)",RG2 cells [4],potentiates the Warburg effect
same,effect on LLLT inhibition of the Warburg effect,RG2 cells [4]; then LLLT 0.5 to 10 J/cm^2,reverses the positive effect
same,effect of Mifepristone treatment on PDT cell kill,Rat glioma (RG2) cells [1]; [10],did not have any significant effects
same,cell kill by Mifepristone treatment alone,"Rat glioma (RG2) cells [1]; RG2, 10 uM, 24 hours",did not induce cell kill
same,effect of Mifepristone pre-treatment on the synergistic effect of LLLT on 14C PDT,Rat glioma (RG2) cells [1]; [11],significantly inhibited
same,effect of Mifepristone treatment on Cisplatin cell kill,[5]; [12],did not have any significant effects
same,cell kill by Mifepristone treatment alone,"[5]; T24, 10 uM, 24 hours (Example 19)",did not induce cell kill
same,effect of Mifepristone pre-treatment on the synergistic effect of LLLT on Cisplatin,[5]; [13],significantly inhibited
same,"effect on Warburg effect (glycolysis, mitochondrial respiration)",[6],potentiates the Warburg effect
same,effect on LLLT inhibition of the Warburg effect,[6]; then LLLT 0.5 to 10 J/cm^2,reverses the positive effect
same,effect of Mifepristone treatment on Cisplatin cell kill,Rat glioma (RG2) cells [7]; [10],did not have any significant effects
same,cell kill by Mifepristone treatment alone,"Rat glioma (RG2) cells [7]; RG2, 10 uM, 24 hours (Example 19)",did not induce cell kill
same,effect of Mifepristone pre-treatment on the synergistic effect of LLLT on Cisplatin,Rat glioma (RG2) cells [7]; [11],significantly inhibited
same,effect of Mifepristone treatment on PDT cell kill,[2]; [12],did not have any significant effects
same,cell kill by Mifepristone treatment alone,"[2]; T24, 10 uM, 24 hours",did not induce cell kill
same,effect of Mifepristone pre-treatment on the synergistic effect of LLLT on 14C PDT,[2]; [13],significantly inhibited
N.N.[Cl][Pt][Cl] [Cisplatin],Cisplatin-mediated cell kill after LLLT,[5]; [14],promoted cell survival
same,Cisplatin-mediated cell kill after LLLT,[5]; [15],increased
same,Cisplatin effect after LLLT (without Mifepristone),"[5]; T24, 905 nm 5 J/cm^2, 660 nm 2.5 J/cm^2 or combination 5 J/cm^2 (Example 19)",increased
same,Cisplatin effective cell kill after LLLT (without Mifepristone),"[5]; T24, higher doses 10-20 J/cm^2 (Example 19)",decreased
same,Cisplatin-mediated cell kill after LLLT,Rat glioma (RG2) cells [7]; [14],promoted cell survival
same,Cisplatin-mediated cell kill after LLLT,Rat glioma (RG2) cells [7]; [15],increased
same,Cisplatin effect after LLLT (without Mifepristone),"Rat glioma (RG2) cells [7]; RG2, 905 nm 5 J/cm^2, 660 nm 2.5 J/cm^2 or combination 5 J/cm^2 (Example 19)",increased
same,Cisplatin effective cell kill after LLLT (without Mifepristone),"Rat glioma (RG2) cells [7]; RG2, higher doses 10-20 J/cm^2 (Example 19)",decreased
